Reference: US20230218654A1, “COMPOSITIONS AND METHODS FOR TREATING HYPERGLYCEMIA IN TYPE-2 DIABETES” (The Board of Regents of the university of Oklahoma, priority 2020, published 2023)
“Also recorded” adds a separate entry of the source.

Columns and labels:
[1] = system: male C57BL/6J mice fed C or WD; experiment: Prevention experiment: MLN4924 twice/week during 16 weeks of WD feeding; assay type: in vivo
Procedure: Mice fed WD became obese and insulin resistant. For both cohorts, body weight was measured weekly. Male C57BL/6J mice were fed C or WD for 16 weeks. Vehicle or MLN4924 (60 mg/kg) was administered via SQ injection twice/week for 16 weeks. Results are mean ±SEM. n=5-7. “*”, vs C+Veh; “#”, vs. WD+Veh, p<0.05.
Male C57BL/6J mice were purchased from the Jackson Laboratory (Bar Harbor, ME). Mice were fed a regular chow (C) diet or a Western diet (WD) that contains 42% fat calories and 0.2% cholesterol content (TD. 88137, Envigo Inc. Indianapolis, IN).
MLN4924 and TAS4464 were purchased from MedChemExpress (MCE, Monmouth Junction, NJ). For cell treatment, MLN4924 and TAS4464 were dissolved in DMSO. Cells were serum starved overnight and then treated with MLN4924, TAS4464 and/or insulin as indicated. For injection in mice, MLN4924 and TAS4464 were first dissolved in DMSO, which was further suspended in 10% (2-hydroxypropyl)-β-cyclodextrin (Sigma, St. Louis, MO). The final solution contains 1% DMSO. The subcutaneous injection volume is 200 µl/mouse.
Lipids were extracted in a mixture of chloroform: methanol (2:1; v: v), dried under nitrogen, and resuspended in isopropanol containing 1% triton X-100. Total cholesterol, free cholesterol and TG were measured with assay kits following the manufacturer’s instruction. Total cholesterol assay kit and TG assay kit were purchased from Pointe Scientific (Canton, MI).
(§1) Aspartate aminotransferase (AST) and alanine aminotransferase (ALT) assay kits were purchased from Pointe Scientific (Canton, MI). Free fatty acid assay kit was purchased from Biovision Inc. (Milpitas, CA). Insulin ELISA kit was purchased from Crystal Chem Inc. (Elk Grove Village, IL).
Next investigated was the glucose lowering effect of CRL inhibition in mice rendered obese and insulin resistant by 16-weeks of WD feeding. […] Next conducted was an intervention study in which MLN4924 treatment was initiated after mice were fed WD for 8 weeks that rendered mice obese and insulin resistant. […] In summary, robust evidence is provided herein that pharmacological CRL inhibition is an effective approach to lowering hyperglycemia.

male C57BL6/J mice = experiment: Plasma/serum insulin and c-peptide after acute neddylation inhibitor treatment; assay type: in vivo
Procedure: Male C57BL6/J mice on chow diet were treated with 45 mg/kg TAS4464 via subcutaneous injection at 9 am. Mice were then fasted for 6 hours and serum insulin was measured. Blood samples were collected at 0 min and 120 min and used for insulin measurement (n=4). Left-hand bars are controls. Right-hand bars are TAS4464 treatments.
Male C57BL6/J mice on Western diet were treated with 15 mg/kg TAS4464 via subcutaneous injection at 9 am. Mice were then fasted for 6 hours and serum c-peptide were measured (n=5).
Male C57BL6/J mice on chow diet were treated with 60 mg/kg MLN4924 via subcutaneous injection at 9 am. Mice were then fasted for 6 hours and serum c-peptide were measured (n=8)
as §1
A hyperinsulinemic-euglycemic clamp study was conducted in which obese mice were treated with vehicle or MLN4924.

[2] = system: primary human hepatocytes; experiment: Western blot of insulin signaling in primary human hepatocytes; assay type: cell-based
Procedure: Cells were pre-treated with increasing dose of MLN4924 for 1 h followed by 100 nM insulin stimulation for 4 h. Western blot was then performed to evaluate insulin signaling activation reflected by AKT phosphorylation.
Cells were treated with MLN4924 for 8 h. IRS1 band densitometry is shown as mean ± SEM of 8-9 independent batches. “* ”, vs. Vehicle, p less than 0.05.
Cells were treated with MLN4924 for 8 h. IRS2 band densitometry is shown as mean ± SEM of 8-9 independent batches. “* ”, vs. Vehicle, p less than 0.05.
FIG. 18B is a Western blot analysis showing that MLN4924 enhances hepatocyte insulin responsiveness (signaling) by delaying feedback IRS degradation. Primary human hepatocytes cells were serum starved for 16 h. Cells were then pre-treated with MLN4924 for 1 h followed by insulin stimulation for 4 h.
IRS protein in IRS 1 and IRS2 band intensity was normalized to Actin band intensity. n=8-9. “*”, p<0.05 (unpaired t-test), vs. Vehicle.
AML12 cells were a generous gift from Dr. Yanqiao Zhang (Northeast Ohio Medical University). AML12 cells were cultured in DMEM medium supplemented with a mixture of insulin-transferrin-selenium (#41400-045, ThermoFisher, Waltham, MA). For experiments, cells were cultured in serum free medium overnight before various treatments were initiated. The siGENOME SMARTpool siRNA and siControl were purchased from Dharmacon, Inc. (Lafayette, CO). […]

[3] = system: differentiated C2C12 myocytes; experiment: Western blot of insulin signaling in differentiated C2C12 myocytes; assay type: cell-based; settings: 500 nM, 1 h, then 100 nM insulin in time course
Procedure: Differentiated C2C12 myocytes were pre-treated with MLN4924 (500 nM) for 1 h followed by 100 nM insulin treatment in time course.
C2C12 myoblast cells were cultured in DMEM medium supplemented with 10% FBS. When cells grow to 60% confluency, differentiation into myocytes was induced by culturing cells in DMEM supplemented with 2% horse serum for 4-6 days. Cells were then serum starved overnight and treated with 500 nM MLN4924 or DMSO for 6 h and then stimulated with 100 nM insulin for 1 hour as indicated. Glucose uptake was measured with a Glucose uptake Glo^tm assay kit that was purchased from Promega (Madison, WI).
Skeletal muscle is a major organ that is responsible for the majority of the blood glucose clearance during postprandial state. Insulin resistance in muscle causes impaired insulin-stimulated glucose uptake that contributes to hyperglycemia in diabetes. To determine if CRL inhibition in muscle cells may contribute to the insulin sensitizing and glucose lowering effect in obese mice, differentiated C2C12 myocytes were treated with MLN4924 to inhibit CRLs (FIG. 8A). […] To further determine if MLN4924 treatment increases muscle glucose clearance, a glucose tolerance test (GTT) was performed, in which reduction of glucose excursion is mainly attributed to blood glucose clearance by muscle.

high fat diet-fed mice = settings: i.p. injection; cited from earlier work
[4] = WD 16 weeks, 60 mg/kg SQ twice/week

**Q.** With `NS(=O)(=O)OC[C@@H]1C[C@@H](n2ccc3c(N[C@H]4CCc5ccccc54)ncnc32)C[C@@H]1O` [MLN4924, ((1S,2S,4R)-4-(4-((1S)-2,3-dihydro-1H-inden-1-ylamino)-7H-pyrrolo[2,3-d]pyrimidin-7-yl)-2-hydroxycyclopentyl) methyl sulfamate] as the compound, how does the tolerability / hepatotoxicity ([1]; 16 weeks of MLN4924, 60 mg/kg SQ twice/week) read?
**A.** well tolerated and did not cause hepatotoxicity

**Q.** What about the “transaminase (ALT) elevation” value ([1]; C-fed mice, after 16 weeks of MLN4924) of the same compound?
**A.** did not cause transaminase (ALT) elevation

**Q.** And the “blood glucose (6 h fast)” value [1, 4]?
**A.** completely normalized blood glucose

**Q.** What about the “reduction of hepatic cholesterol” value [1, 4] of the same compound?
**A.** ~ 30%

**Q.** What about the “reduction of hepatic triglycerides (TG)” value [1, 4] of the same compound?
**A.** ~ 40%

**Q.** And the “serum ALT” value ([1]; WD-fed mice, 16 weeks of MLN4924)?
**A.** significantly reduced

**Q.** And the plasma insulin (male C57BL6/J mice; acute MLN4924 treatment)?
**A.** ~ 0.55 ng/ml

**Q.** And the serum c-peptide (male C57BL6/J mice; acute MLN4924 treatment)?
**A.** ~ 1.1 ng/ml

**Q.** What about the serum c-peptide concentration (male C57BL6/J mice; chow diet, 60 mg/kg SQ at 9 am, 6 h fast) of the same compound?
**A.** elevated serum c-peptide concentration

**Q.** And the “IRS1 and IRS2 protein abundance” value ([2]; MLN4924 (500 nM) 8 h, independent batches)?
**A.** consistently increased IRS1 and IRS2 protein abundance; also recorded: increased IRS protein abundance

**Q.** And the “insulin activation of AKT” value ([2]; MLN4924 pre-treatment 1 h, 100 nM insulin 4 h)?
**A.** enhanced insulin activation of AKT; also recorded: increased IRS protein abundance and insulin-stimulated AKT activation

**Q.** What about the “IRS1 and IRS2 degradation upon insulin stimulation” value [3] of the same compound?
**A.** delayed IRS1 and IRS2 degradation

**Q.** What about the “insulin activation of AKT phosphorylation” value [3] of the same compound?
**A.** increased insulin activation of AKT phosphorylation

**Q.** And the obesity (high fat diet-fed mice)?
**A.** significantly reduces obesity
